A short description of data set [1]: Solubility in PBS. It is filed as physicochemical. The method, boiled down: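 PBS sample ultracentrifuged; supernatant run on HPLC vs. 50 μM peptide in DMSO standard. Solubility = (PBS peak area / DMSO peak area) × 50 uM.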
The target of data set [2] is T1, full-length beta-Catenin (Uniprot ID P35222) (Homo sapiens, UniProt P35222).
T1 construct: 10 nM full-length beta-Catenin (Uniprot ID P35222)
T1 sequence (P35222 1-781): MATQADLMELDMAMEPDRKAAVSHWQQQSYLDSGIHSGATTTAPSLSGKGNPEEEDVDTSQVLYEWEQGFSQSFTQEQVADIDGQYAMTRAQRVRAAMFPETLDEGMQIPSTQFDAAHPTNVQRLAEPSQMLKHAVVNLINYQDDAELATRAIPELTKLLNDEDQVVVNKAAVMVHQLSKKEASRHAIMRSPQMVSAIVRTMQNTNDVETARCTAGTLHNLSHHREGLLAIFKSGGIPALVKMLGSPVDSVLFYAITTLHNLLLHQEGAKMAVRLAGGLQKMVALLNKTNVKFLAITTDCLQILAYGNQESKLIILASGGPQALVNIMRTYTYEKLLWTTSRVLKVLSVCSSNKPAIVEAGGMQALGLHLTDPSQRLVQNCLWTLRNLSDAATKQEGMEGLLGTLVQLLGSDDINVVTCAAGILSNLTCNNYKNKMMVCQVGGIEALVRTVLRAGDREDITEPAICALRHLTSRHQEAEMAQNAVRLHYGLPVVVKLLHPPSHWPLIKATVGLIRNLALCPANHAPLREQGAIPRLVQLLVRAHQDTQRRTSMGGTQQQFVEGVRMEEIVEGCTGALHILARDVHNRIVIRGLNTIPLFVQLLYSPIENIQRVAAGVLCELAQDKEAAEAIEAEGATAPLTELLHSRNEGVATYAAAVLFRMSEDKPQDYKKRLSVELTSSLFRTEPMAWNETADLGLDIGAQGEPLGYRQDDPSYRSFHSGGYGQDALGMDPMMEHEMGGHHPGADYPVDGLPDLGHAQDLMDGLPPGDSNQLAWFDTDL
Briefly: Fluorescence polarization IC50 (beta-catenin / 5FAM-TCF4 10-53 competition). It is filed as binding. Background: Fluorescence polarisation rises when a labelled molecule tumbles more slowly, as on binding a larger partner.

[3] abbreviates: fluorescence polarization, read-out: beta-Catenin FP IC50.

As usually defined, the Solubility is the concentration that dissolves in the medium under given conditions. The low end stands for little dissolved substance, the high end for much dissolved substance. As a reminder, the IC50 is the concentration that inhibits the measured activity by half. For orientation: solubility means the concentration that dissolves in the medium under given conditions.

In brackets after ≈: the same amount, converted by molar mass. Where two headings read alike, the source gives them in different places.

As for `CC(=O)N1CCC[C@]12CC=CCCCC1(CCCC=CCCCOC(=O)N3CC[C@@](C(=O)N[C@@H](Cc4ccccc4Cl)C(=O)N[C@@H](Cc4csc5ccccc45)C(=O)N[C@H](C(N)=O)[C@@H](C)O)(C3)NC(=O)[C@H](CO)NC(=O)[C@H](Cc3ccccc3)NC(=O)[C@H](C)NC(=O)[C@H](C)NC(=O)[C@H](CC(=O)O)NC(=O)[C@H](CC(=O)O)NC1=O)NC(=O)[C@H](CC1CCCCC1)NC(=O)[C@H](CC(=O)O)NC2=O` (stereo partly drawn) [I-1135, Ac-PL3-Asp-Cha-B5-Asp-Asp-Ala-Ala-Phe-Ser-PyrS2-2C1F-BztA-Thr-NH2], the Solubility in data set [1] (Solubility (uM)) stood at 39 µM (≈ 74.8 µg/mL). Also, the IC50 in data set [2] (setting [3]) came out at 20 nM.
`CC(=O)N1CCC[C@]12CC=CCCCC1(CCCC=CCCCOC(=O)N3CC[C@@](C(=O)N[C@@H](Cc4ccccc4Cl)C(=O)N[C@@H](Cc4csc5ccccc45)C(=O)N[C@@H](CC(C)C)C(N)=O)(C3)NC(=O)[C@H](CO)NC(=O)[C@H](Cc3ccccc3)NC(=O)[C@H](C)NC(=O)[C@H](C)NC(=O)[C@H](CC(=O)O)NC(=O)[C@H](CC(=O)O)NC1=O)NC(=O)[C@H](Cc1ccccc1)NC(=O)[C@H](CC(=O)O)NC2=O` (stereo partly drawn) [I-1144, Ac-PL3-Asp-Phe-B5-Asp-Asp-Ala-Ala-Phe-Ser-PyrS2-2C1F-BztA-Leu-NH2]: the concentration in solution in data set [1] (Solubility (uM)) (Solubility) came to 32 µM (≈ 61.6 µg/mL). Also, the IC50 in data set [2] (setting [3]) was 28 nM.
For the compound `CC(=O)N1CCC[C@]12CC=CCCCC1(CCCC=CCCCOC(=O)N3CC[C@@](C(=O)N[C@@H](Cc4ccccc4Cl)C(=O)N[C@@H](Cc4csc5ccccc45)C(=O)N[C@@H](CCC(N)=O)C(N)=O)(C3)NC(=O)[C@H](CO)NC(=O)[C@H](Cc3ccccc3)NC(=O)[C@H](CC(C)C)NC(=O)[C@H](CC(C)C)NC(=O)[C@H](CC(=O)O)NC(=O)[C@H](CC(=O)O)NC1=O)NC(=O)[C@H](CC1CCCCC1)NC(=O)[C@H](CC(=O)O)NC2=O` (stereo partly drawn) [I-1149, Ac-PL3-Asp-Cha-B5-Asp-Asp-Leu-Leu-Phe-Ser-PyrS2-2C1F-BztA-Gln-NH2], the “Solubility” value in data set [1] amounted to 10 µM (≈ 20.3 µg/mL). Besides, the IC50 in data set [2] (setting [3]) amounted to 70 nM.
In data set [1] (Solubility (uM)), `CC(=O)N1CCC[C@]12CC=CCCCC1(CCCC=CCCCOC(=O)N3CC[C@@](C(=O)N[C@@H](Cc4ccccc4Cl)C(=O)N[C@@H](Cc4csc5ccccc45)C(=O)N[C@@H](CO)C(N)=O)(C3)NC(=O)[C@H]([C@@H](C)O)NC(=O)[C@H](Cc3ccccc3)NC(=O)[C@H](C)NC(=O)[C@H](CC(C)C)NC(=O)[C@H](CC(=O)O)NC(=O)[C@H](CC(=O)O)NC1=O)NC(=O)[C@H](Cc1ccccc1)NC(=O)[C@H](CC(=O)O)NC2=O` (stereo partly drawn) [I-1156, Ac-PL3-Asp-Phe-B5-Asp-Asp-Leu-Ala-Phe-Thr-PyrS2-2C1F-BztA-Ser-NH2] gave a Solubility of 48 µM (≈ 93.8 µg/mL). In data set [2] (setting [3]), the IC50 was 14 nM.
`CC(=O)N1CCC[C@]12CC=CCCCC1(CCCC=CCCCOC(=O)N3CC[C@@](C(=O)N[C@@H](Cc4ccccc4Cl)C(=O)N[C@@H](Cc4csc5ccccc45)C(=O)N[C@@H](CO)C(N)=O)(C3)NC(=O)[C@H]([C@@H](C)O)NC(=O)[C@H](Cc3ccccc3)NC(=O)[C@H](CC(C)C)NC(=O)[C@H](CC(C)C)NC(=O)[C@H](CC(=O)O)NC(=O)[C@H](CC(=O)O)NC1=O)NC(=O)[C@H](Cc1ccccc1)NC(=O)[C@H](CC(=O)O)NC2=O` (stereo partly drawn) [I-1158, Ac-PL3-Asp-Phe-B5-Asp-Asp-Leu-Leu-Phe-Thr-PyrS2-2C1F-BztA-Ser-NH2]: in data set [1], the concentration in solution (Solubility) came to 29 µM (≈ 57.9 µg/mL). The IC50 in data set [2] (beta-Catenin FP IC50, fluorescence polarization) is 168 nM.
`CC(=O)N1CCC[C@]12CC=CCCCC1(CCCC=CCCCOC(=O)N3CC[C@@](C(=O)N[C@@H](Cc4ccccc4Cl)C(=O)N[C@@H](Cc4csc5ccccc45)C(=O)N[C@@H](CCC(N)=O)C(N)=O)(C3)NC(=O)[C@H](CC(C)C)NC(=O)[C@H](Cc3ccccc3)NC(=O)[C@H](C)NC(=O)[C@H](C)NC(=O)[C@H]([C@@H](C)O)NC(=O)[C@H](CC(=O)O)NC1=O)NC(=O)[C@H](CC(C)(C)C)NC(=O)[C@H](CC(=O)O)NC2=O` (stereo partly drawn) [I-1169, Ac-PL3-Asp-Npg-B5-Asp-Thr-Ala-Ala-Phe-Leu-PyrS2-2C1F-BztA-Gln-NH2]: the “Solubility” value in data set [1] worked out at 10 µM (≈ 19.3 µg/mL). Besides, the 50% inhibitory concentration (IC50) in data set [2] (setting [3]) was found to be 159 nM.
Compound `CC(=O)N1CCC[C@]12CC=CCCCC1(CCCC=CCCCOC(=O)N3CC[C@@](C(=O)N[C@@H](CC4CCCC4)C(=O)N[C@@H](Cc4csc5ccccc45)C(=O)N[C@@H](CCC(N)=O)C(N)=O)(C3)NC(=O)[C@H](CC(C)C)NC(=O)[C@H](Cc3ccccc3)NC(=O)[C@H](C)NC(=O)[C@H](C)NC(=O)[C@H](CC(=O)O)NC(=O)[C@H](CC(=O)O)NC1=O)NC(=O)[C@H](CC(C)(C)C)NC(=O)[C@H](CC(=O)O)NC2=O` (stereo partly drawn) [I-1353, PL3-Asp-Npg-B5-Asp-Asp-Ala-Ala-Phe-Leu-PyrS2-CypA-BztA-Gln-NH2] registered a solubility at 15 min in data set [1] (Solubility (uM)) of 44 µM (≈ 83.7 µg/mL).
Still for that read-out and setting: to `COCCC(=O)N1CCC[C@]12CC=CCCCC1(CCCC=CCCCOC(=O)N3CC[C@@](C(=O)N[C@@H](Cc4ccccc4)C(=O)N[C@@H](Cc4csc5ccccc45)C(=O)N[C@@H](CO)C(N)=O)(C3)NC(=O)[C@H](CO)NC(=O)[C@H](Cc3ccccc3)NC(=O)[C@H](C)NC(=O)[C@H](C)NC(=O)[C@H](CC(=O)O)NC(=O)[C@H](CC(=O)O)NC1=O)NC(=O)[C@H](CC(C)(C)C)NC(=O)[C@H](CC(=O)O)NC2=O` (stereo partly drawn) [I-1357, PL3-Asp-Npg-B5-Asp-Asp-Ala-Ala-Phe-Ser-PyrS2-Phe-BztA-Ser-NH2] belongs 48 µM (≈ 90.6 µg/mL).
As to `CCN(CC)C(=O)[C@H](CCC(N)=O)NC(=O)[C@H](Cc1csc2ccccc12)NC(=O)[C@H](Cc1ccsc1)NC(=O)[C@]12CCN(C1)C(=O)OCCCC=CCCCC1(CCCC=CC[C@]3(CCCN3C(C)=O)C(=O)N[C@@H](CC(=O)O)C(=O)N[C@@H](CC(C)(C)C)C(=O)N1)C(=O)N[C@@H](CC(=O)O)C(=O)N[C@@H](CC(=O)O)C(=O)N[C@@H](C)C(=O)N[C@@H](C)C(=O)N[C@@H](Cc1ccccc1)C(=O)N[C@@H](CC(N)=O)C(=O)N2` (stereo partly drawn) [I-1373, PL3-Asp-Npg-B5-Asp-Asp-Ala-Ala-Phe-Asn-PyrS2-3Thi-BztA-Gln-NEt2], the “Solubility” value in data set [1] was 50 µM (≈ 98.7 µg/mL).
In the case of `CC(=O)N1CCC[C@]12CC=CCCCC1(CCCC=CCCCOC(=O)N3CC[C@@](C(=O)N[C@@H](Cc4ccsc4)C(=O)N[C@@H](Cc4csc5ccccc45)C(=O)N[C@@H](CCC(N)=O)C(=O)NC4CCCCC4)(C3)NC(=O)[C@H](CC(N)=O)NC(=O)[C@H](Cc3ccccc3)NC(=O)[C@H](C)NC(=O)[C@H](C)NC(=O)[C@H](CC(=O)O)NC(=O)[C@H](CC(=O)O)NC1=O)NC(=O)[C@H](CC(C)(C)C)NC(=O)[C@H](CC(=O)O)NC2=O` (stereo partly drawn) [I-1374, PL3-Asp-Npg-B5-Asp-Asp-Ala-Ala-Phe-Asn-PyrS2-3Thi-BztA-Gln-NHCyHe], in data set [1], the “Solubility” value was 10 µM (≈ 20 µg/mL).
Turning to `CC(=O)N1CCC[C@]12CC=CCCCC1(CCCC=CCCCOC(=O)N3CC[C@@](C(=O)N[C@@H](Cc4ccsc4)C(=O)N[C@@H](Cc4csc5ccccc45)C(=O)N[C@@H](CCC(N)=O)C(=O)NC4CC4)(C3)NC(=O)[C@H](CC(N)=O)NC(=O)[C@H](Cc3ccccc3)NC(=O)[C@H](C)NC(=O)[C@H](C)NC(=O)[C@H](CC(=O)O)NC(=O)[C@H](CC(=O)O)NC1=O)NC(=O)[C@H](CC(C)(C)C)NC(=O)[C@H](CC(=O)O)NC2=O` (stereo partly drawn) [I-1375, PL3-Asp-Npg-B5-Asp-Asp-Ala-Ala-Phe-Asn-PyrS2-3Thi-BztA-Gln-NHCyPr], in data set [1], the “Solubility” value stood at 50 µM (≈ 97.9 µg/mL).
On the same count and under the same terms, the same measure for `CC(=O)N1CCC[C@]12CC=CCCCC1(CCCC=CCCCOC(=O)N3CC[C@@](C(=O)N[C@@H](Cc4ccccc4)C(=O)N[C@@H](Cc4csc5ccccc45)C(=O)N[C@@H](CCC(N)=O)C(N)=O)(C3)NC(=O)[C@H](CC(C)C)NC(=O)[C@H](Cc3ccccc3)NC(=O)[C@H](C)NC(=O)[C@H](CCCCNC(C)C)NC(=O)[C@H](CCCCN)NC(=O)[C@H](CC(N)=O)NC1=O)NC(=O)[C@H](C)NC(=O)[C@H](CC(=O)O)NC2=O` (stereo partly drawn) [I-1380, Ac-PL3-Asp-Ala-B5-Asn-Lys-iPrLys-Ala-Phe-Leu-PyrS2-Phe-BztA-Gln-NH2]: 10 µM (≈ 19.7 µg/mL); for `CC(=O)N1CCC[C@]12CC=CCCCC1(CCCC=CCCCOC(=O)N3CC[C@@](C(=O)N[C@@H](Cc4ccccc4)C(=O)N[C@@H](Cc4ccc5ccccc5c4)C(=O)N[C@@H](CCC(N)=O)C(N)=O)(C3)NC(=O)[C@H](CC(C)C)NC(=O)[C@H](Cc3ccccc3)NC(=O)[C@H](C)NC(=O)[C@H](CCCCNC(C)C)NC(=O)[C@H]([C@@H](C)O)NC(=O)[C@H](CC(N)=O)NC1=O)NC(=O)[C@H](C)NC(=O)[C@H](CC(=O)O)NC2=O` (stereo partly drawn) [I-1381, Ac-PL3-Asp-Ala-B5-Asn-Thr-iPrLys-Ala-Phe-Leu-PyrS2-Phe-2NapA-Gln-NH2]: 10 µM (≈ 19.3 µg/mL).
On the same count and under the same terms, to `CC(=O)N1CCC[C@]12CC=CCCCC1(CCCC=CCCCOC(=O)N3CC[C@@](C(=O)N[C@@H](Cc4ccccc4)C(=O)N[C@@H](Cc4csc5ccccc45)C(=O)N[C@H](C(N)=O)[C@@H](C)O)(C3)NC(=O)[C@H](CC(C)C)NC(=O)[C@H](Cc3ccccc3)NC(=O)[C@H](C)NC(=O)[C@H](CCCCNC(C)C)NC(=O)[C@H]([C@@H](C)O)NC(=O)[C@H](CC(=O)O)NC1=O)NC(=O)[C@H](C)NC(=O)[C@H](CC(N)=O)NC2=O` (stereo partly drawn) [I-1384, Ac-PL3-Asn-Ala-B5-Asp-Thr-iPrLys-Ala-Phe-Leu-PyrS2-Phe-BztA-Thr-NH2] belongs 10 µM (≈ 19.1 µg/mL).

The values are drawn from patent publication US20240116985A1, “STAPLED PEPTIDES AND METHODS THEREOF” (priority 2020, published 2024).
